Measurements reported in patent US12226412B2, “Heteroaryl-ketone fused azadecalin glucocorticoid receptor modulators” (Corcept Therapeutics, Inc., priority 2012, dated 2025).
Where two headings read alike, the source gives them in different places.

How the values were obtained:
human recombinant GR = target: T1, human recombinant GR (Homo sapiens, UniProt P04150); experiment: Human glucocorticoid receptor (GR) fluorescence polarisation (FP) binding assay
T1 construct: purchased PanVera P2812
T1 sequence (P04150 1-777): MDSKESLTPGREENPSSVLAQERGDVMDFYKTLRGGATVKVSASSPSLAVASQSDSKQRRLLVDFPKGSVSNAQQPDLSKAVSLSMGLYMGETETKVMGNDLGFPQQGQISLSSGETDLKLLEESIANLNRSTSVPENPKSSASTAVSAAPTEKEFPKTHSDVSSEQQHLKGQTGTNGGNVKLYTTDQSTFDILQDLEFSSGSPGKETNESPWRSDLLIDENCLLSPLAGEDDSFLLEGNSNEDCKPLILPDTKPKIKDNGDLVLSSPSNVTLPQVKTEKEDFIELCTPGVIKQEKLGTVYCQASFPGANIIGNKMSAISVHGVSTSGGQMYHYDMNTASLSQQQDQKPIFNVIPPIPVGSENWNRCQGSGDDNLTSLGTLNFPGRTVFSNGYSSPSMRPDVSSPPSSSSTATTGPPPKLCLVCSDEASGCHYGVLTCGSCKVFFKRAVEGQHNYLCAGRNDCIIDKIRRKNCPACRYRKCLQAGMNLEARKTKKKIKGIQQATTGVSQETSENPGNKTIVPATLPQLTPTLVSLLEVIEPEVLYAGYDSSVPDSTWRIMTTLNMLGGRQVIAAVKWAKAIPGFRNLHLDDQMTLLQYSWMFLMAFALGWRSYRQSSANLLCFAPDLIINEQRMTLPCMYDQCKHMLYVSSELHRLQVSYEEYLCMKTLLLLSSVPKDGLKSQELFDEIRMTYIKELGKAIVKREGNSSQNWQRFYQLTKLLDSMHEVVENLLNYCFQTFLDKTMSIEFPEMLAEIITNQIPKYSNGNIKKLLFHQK
Method in brief: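 Competition fluorescence polarisation: 0.5 nM GS Red labelled glucocorticoid and 1 nM recombinant human GR with 8-point half-log compound series, 1% DMSO, 4 h room temperature, potassium phosphate pH 7.4 buffer with molybdate, EDTA, DTT. Affinity derived from the drop in polarisation, normalised to blank wells.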

[1] = system: induction of TAT by dexamethasone in HepG2 cells; experiment: HepG2 tyrosine aminotransferase (TAT) assay; format: cell-based, human
[2] = human recombinant GR, fluorescence polarisation binding assay, read-out: GR binding
[3] = HepG2 cells, challenge of 100 nM dexamethasone, Ki from IC50 by Cheng and Prusoff equation

| Structure (SMILES) | Ki (human recombinant GR; [2]) | Ki [1, 3] | Ki (human recombinant GR) | Ki [1] |
| --- | --- | --- | --- | --- |
| CCn1ncc(S(=O)(=O)N2CCC3=Cc4c(cnn4-c4ccc(F)cc4)C[C@]3(C(=O)c3cc(C(F)(F)F)ccn3)C2)n1 [Example 11CK, (R)-(6-((2-ethyl-2H-1,2,3-triazol-4-yl)sulfonyl)-1-(4-fluorophenyl)-4,4a,5,6,7,8-hexahydro-1H-pyrazolo[3,4-g]isoquinolin-4a-yl)(4-(trifluoromethyl)pyridin-2-yl)methanone] | < 0.5 nM | < 20 nM |  |  |
| COc1cccc(S(=O)(=O)N2CCC3=Cc4c(cnn4-c4ccc(F)cc4)C[C@]3(C(=O)c3nccs3)C2)c1 [Example 12B, (R)-(1-(4-fluorophenyl)-6-((3-methoxyphenyl)sulfonyl)-4,4a,5,6,7,8-hexahydro-1H-pyrazolo[3,4-g]isoquinolin-4a-yl)(thiazol-2-yl)methanone] | 0.5 to 1 nM | 20 to 100 nM |  |  |
| CCCn1nncc1S(=O)(=O)N1CCC2=Cc3c(cnn3-c3ccc(F)cc3)C[C@]2(C(=O)c2cscn2)C1 [Example 11CR, (R)-(1-(4-fluorophenyl)-6-((1-propyl-1H-1,2,3-triazol-5-yl)sulfonyl)-4,4a,5,6,7,8-hexahydro-1H-pyrazolo[3,4-g]isoquinolin-4a-yl)(thiazol-4-yl)methanone] | 0.5 to 1 nM | 20 to 100 nM |  |  |
| O=C(c1nccs1)[C@]12Cc3cnn(-c4ccc(F)cc4)c3C=C1CCN(S(=O)(=O)c1ccc(F)c(C(F)(F)F)c1)C2 [Example 12I, (R)-(6-((4-fluoro-3-(trifluoromethyl)phenyl)sulfonyl)-1-(4-fluorophenyl)-4,4a,5,6,7,8-hexahydro-1H-pyrazolo[3,4-g]isoquinolin-4a-yl)(thiazol-2-yl)methanone] | < 0.5 nM | 20 to 100 nM |  |  |
| O=C(c1ccccn1)[C@]12Cc3cnn(-c4ccc(F)cc4)c3C=C1CCN(S(=O)(=O)C1CCOCC1)C2 [Example 2S, (R)-(1-(4-fluorophenyl)-6-((tetrahydro-2H-pyran-4-yl)sulfonyl)-4,4a,5,6,7,8-hexahydro-1H-pyrazolo[3,4-g]isoquinolin-4a-yl)(pyridin-2-yl)methanone] | > 1 nM | ≥ 100 nM |  |  |
| Cc1ccccc1S(=O)(=O)N1CCC2=Cc3c(cnn3-c3ccc(F)cc3)C[C@]2(C(=O)c2ccccn2)C1 [Example 2C, (R)-(1-(4-fluorophenyl)-6-(o-tolylsulfonyl)-4,4a,5,6,7,8-hexahydro-1H-pyrazolo [3,4-g]isoquinolin-4a-yl)(pyridin-2-yl)methanone] |  | < 20 nM | < 0.5 nM |  |
| O=C(c1nccs1)[C@]12Cc3cnn(-c4ccc(F)cc4)c3C=C1CCN(S(=O)(=O)c1ccc(N3CCCC3)cc1)C2 [Example 6, (R)-(1-(4-fluorophenyl)-6-((4-(pyrrolidin-1-yl)phenyl)sulfonyl)-4,4a,5,6,7,8-hexahydro-1H-pyrazolo[3,4-g]isoquinolin-4a-yl)(thiazol-2-yl)methanone] | 0.5 to 1 nM | 20 to 100 nM |  |  |
| CCn1cc(S(=O)(=O)N2CCC3=Cc4c(cnn4-c4ccc(F)cc4)C[C@]3(C(=O)c3cscn3)C2)cn1 [Example 11BZ, (R)-(6-((1-ethyl-1H-pyrazol-4-yl)sulfonyl)-1-(4-fluorophenyl)-4,4a,5,6,7,8-hexahydro-1H-pyrazolo[3,4-g]isoquinolin-4a-yl)(thiazol-4-yl)methanone] | < 0.5 nM | 20 to 100 nM |  |  |
| Cc1cccc(S(=O)(=O)N2CCC3=Cc4c(cnn4-c4ccc(F)cc4)C[C@]3(C(=O)c3cc(C)ccn3)C2)c1 [Example 12G, (R)-(1-(4-fluorophenyl)-6-(m-tolylsulfonyl)-4,4a,5,6,7,8-hexahydro-1H-pyrazolo[3,4-g]isoquinolin-4a-yl)(4-methylpyridin-2-yl)methanone] | < 0.5 nM | < 20 nM |  |  |
| Cc1ccnc(C(=O)[C@]23Cc4cnn(-c5ccc(F)cc5)c4C=C2CCN(S(=O)(=O)c2cn[nH]c2C)C3)c1 [Example 11BD, (R)-(1-(4-fluorophenyl)-6-((5-methyl-1H-pyrazol-4-yl)sulfonyl)-4,4a,5,6,7,8-hexahydro-1H-pyrazolo[3,4-g]isoquinolin-4a-yl)(4-methylpyridin-2-yl)methanone] | < 0.5 nM | 20 to 100 nM |  |  |
| CCCn1cc(S(=O)(=O)N2CCC3=Cc4c(cnn4-c4ccc(F)cc4)C[C@]3(C(=O)c3cscn3)C2)nn1 [Example 11CS, (R)-(1-(4-fluorophenyl)-6-((1-propyl-1H-1,2,3-triazol-4-yl)sulfonyl)-4,4a,5,6,7,8-hexahydro-1H-pyrazolo[3,4-g]isoquinolin-4a-yl)(thiazol-4-yl)methanone] | < 0.5 nM | < 20 nM |  |  |
| O=C(c1nccs1)[C@]12Cc3cnn(-c4ccc(F)cc4)c3C=C1CCN(S(=O)(=O)c1cccc(C(F)(F)F)c1)C2 [Example 12, (R)-(1-(4-fluorophenyl)-6-((3-(trifluoromethyl)phenyl)sulfonyl)-4,4a,5,6,7,8-hexahydro-1H-pyrazolo[3,4-g]isoquinolin-4a-yl)(thiazol-2-yl)methanone] | < 0.5 nM | < 20 nM |  |  |
| Cc1ccnc(C(=O)[C@]23Cc4cnn(-c5ccc(F)cc5)c4C=C2CCN(S(=O)(=O)c2ccc(F)c(F)c2)C3)c1 [Example 11U, (R)-(6-((3,4-difluorophenyl)sulfonyl)-1-(4-fluorophenyl)-4,4a,5,6,7,8-hexahydro-1H-pyrazolo[3,4-g]isoquinolin-4a-yl)(4-methylpyridin-2-yl)methanone] | < 0.5 nM | < 20 nM |  |  |
| COc1ccc(S(=O)(=O)N2CCC3=Cc4c(cnn4-c4ccc(F)cc4)C[C@]3(C(=O)c3ccccn3)C2)cc1F [Example 11D, (R)-(6-((3-fluoro-4-methoxyphenyl)sulfonyl)-1-(4-fluorophenyl)-4,4a,5,6,7,8-hexahydro-1H-pyrazolo[3,4-g]isoquinolin-4a-yl)(pyridin-2-yl)methanone] | < 0.5 nM | < 20 nM |  |  |
| Cc1ccc(S(=O)(=O)N2CCC3=Cc4c(cnn4-c4ccc(F)cc4)C[C@]3(C(=O)c3ccccn3)C2)cc1 [Example 2O, (R)-(1-(4-fluorophenyl)-6-tosyl-4,4a,5,6,7,8-hexahydro-1H-pyrazolo [3,4-g]isoquinolin-4a-yl)(pyridin-2-yl)methanone] |  | < 20 nM | < 0.5 nM |  |
| O=C(c1nccs1)[C@]12Cc3cnn(-c4ccc(F)cc4)c3C=C1CCN(S(=O)(=O)c1ccc(C(F)(F)F)cc1)C2 [Example 1C, (R)-(1-(4-fluorophenyl)-6-((4-(trifluoromethyl)phenyl)sulfonyl)-4,4a,5,6,7,8-hexahydro-1H-pyrazolo[3,4-g]isoquinolin-4a-yl)(thiazol-2-yl)methanone] |  |  | < 0.5 nM | < 20 nM |
| O=C(c1ccccn1)[C@]12Cc3cnn(-c4ccc(F)cc4)c3C=C1CCN(S(=O)(=O)C1CCCCC1)C2 [Example 2T, (R)-(6-(cyclohexylsulfonyl)-1-(4-fluorophenyl)-4,4a,5,6,7,8-hexahydro-1H-pyrazolo [3,4-g]isoquinolin-4a-yl)(pyridin-2-yl)methanone] | > 1 nM | ≥ 100 nM |  |  |
| COc1cccc(S(=O)(=O)N2CCC3=Cc4c(cnn4-c4ccc(F)cc4)C[C@]3(C(=O)c3ccccn3)C2)c1 [Example 2G, (R)-(1-(4-fluorophenyl)-6-((3-methoxyphenyl)sulfonyl)-4,4a,5,6,7,8-hexahydro-1H-pyrazolo[3,4-g]isoquinolin-4a-yl)(pyridin-2-yl)methanone] |  |  | < 0.5 nM | < 20 nM |
